Experimental data taken from patent US11040036B2, “Pyruvate kinase activators for use in treating blood disorders” (Agios Pharmaceuticals, Inc., priority 2017, dated 2021).

Columns and labels:
wild type PKR [1] = target: T1, wild type PKR (Homo sapiens, UniProt P30613); assay: PKR mutant assay (AC50), wild type PKR; assay type: biochemical; settings: wild type PKR enzyme; read-out: PKR WT AC50
Method in brief: (§1)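 Compounds were tested from 100 μM final, 3-fold over 11 points, and held 60 min at room temperature with enzyme (40-400 ng/well wild-type, R510Q or K410E PKR). ADP 0.2-1.65 mM then started the reaction, with PEP 0.1-0.5 mM in pH 7.5 Tris/KCl/MgCl2 buffer. LDH/NADH (180 μM) coupled read-out was taken as A340 change, fitted to AC50.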

PKR K410E = PKR K410E (Homo sapiens, UniProt P30613, K410E); assay: PKR mutant assay (AC50), PKR K410E; assay type: biochemical; settings: PKR K410E mutant enzyme
PKR K410E, sequence (P30613 whole entry K410E): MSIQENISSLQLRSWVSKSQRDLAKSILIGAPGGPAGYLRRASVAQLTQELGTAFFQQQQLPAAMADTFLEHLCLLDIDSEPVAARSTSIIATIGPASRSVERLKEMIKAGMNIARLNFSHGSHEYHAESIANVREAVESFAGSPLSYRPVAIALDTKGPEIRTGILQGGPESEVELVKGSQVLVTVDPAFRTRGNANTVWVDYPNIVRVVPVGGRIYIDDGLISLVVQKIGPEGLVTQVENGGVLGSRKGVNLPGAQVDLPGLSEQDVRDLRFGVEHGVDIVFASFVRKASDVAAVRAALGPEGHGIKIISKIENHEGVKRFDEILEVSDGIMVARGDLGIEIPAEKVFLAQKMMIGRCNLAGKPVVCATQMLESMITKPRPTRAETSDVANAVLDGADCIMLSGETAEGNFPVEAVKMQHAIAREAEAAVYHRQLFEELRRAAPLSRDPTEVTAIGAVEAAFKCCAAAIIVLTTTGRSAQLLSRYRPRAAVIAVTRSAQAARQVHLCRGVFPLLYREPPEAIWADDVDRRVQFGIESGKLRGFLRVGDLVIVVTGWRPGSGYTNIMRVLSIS
Method in brief: as §1

PKR R510Q = PKR R510Q (Homo sapiens, UniProt P30613, R510Q); assay: PKR mutant assay (AC50), PKR R510Q; assay type: biochemical; settings: PKR R510Q mutant enzyme; read-out: PK R510Q AC50
PKR R510Q, sequence (P30613 whole entry R510Q): as the sequence (P30613 whole entry K410E) above, with E410K, R510Q counted along it
Method in brief: as §1

wild type PKR [2] = target: T1, wild type PKR; assay: Cell based ATP assay in purified red blood cells; design: endogenous in cells; host or cells: purified red blood cells from blood of healthy volunteers; settings: RBCs, overnight at 37° C., ATP levels by Cell-Titer-Glo
Method in brief: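 ATP content was measured by CellTiter-Glo after overnight exposure to compound at 37 °C. Cells were purified red blood cells from healthy donors, filtered to remove leukocytes and suspended at 1×10^7 cells/mL in AGAM medium. Compounds were serially diluted 1:4, with 0.1% DMSO final.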

T1 sequence (P30613 whole entry): as the sequence (P30613 whole entry K410E) above, with E410K counted along it

## Cn1c2nc(Cc3cscn3)sc2c2cnn(Cc3csc(N)n3)c(=O)c21
Wild type PKR [1]
  AC50: < 300 nM
PKR K410E
  AC50: < 300 nM
PKR R510Q
  AC50: < 300 nM
Wild type PKR [2]
  AC50: ≤ 1000 nM

## Cn1c2nc(Cc3cc[nH]n3)sc2c2cnn(Cc3csc(Cl)n3)c(=O)c21
Wild type PKR [1]
  AC50: < 300 nM
PKR K410E
  AC50: < 300 nM
PKR R510Q
  AC50: < 300 nM
Wild type PKR [2]
  AC50: ≤ 1000 nM

## Cn1c2nc(Cc3csc(CO)n3)sc2c2cnn(Cc3nccs3)c(=O)c21
Wild type PKR [1]
  AC50: < 300 nM
PKR K410E
  AC50: < 300 nM
PKR R510Q
  AC50: < 300 nM
Wild type PKR [2]
  AC50: ≤ 1000 nM

## Cc1cccc(Cn2ncc3c4sc(Cc5cc[nH]n5)nc4n(C)c3c2=O)n1
Wild type PKR [1]
  AC50: < 300 nM
PKR K410E
  AC50: < 300 nM
PKR R510Q
  AC50: < 300 nM
Wild type PKR [2]
  AC50: ≤ 1000 nM

## Cn1c2nc(Cc3c[nH]cn3)sc2c2cnn(Cc3ncsc3Cl)c(=O)c21
Wild type PKR [1]
  AC50: < 300 nM
PKR K410E
  AC50: < 300 nM
PKR R510Q
  AC50: < 300 nM
Wild type PKR [2]
  AC50: ≤ 1000 nM

## Cn1ccc(Cn2ncc3c4sc(Cc5cscn5)nc4n(C)c3c2=O)n1
Wild type PKR [1]
  AC50: < 300 nM
PKR K410E
  AC50: < 300 nM
PKR R510Q
  AC50: < 300 nM
Wild type PKR [2]
  AC50: ≤ 1000 nM

## Cc1cn(C)nc1Cn1ncc2c3sc(Cc4cc[nH]n4)nc3n(C)c2c1=O
Wild type PKR [1]
  AC50: < 300 nM
PKR K410E
  AC50: < 300 nM
PKR R510Q
  AC50: < 300 nM
Wild type PKR [2]
  AC50: ≤ 1000 nM

## Cn1c2nc(Cc3ccccn3)sc2c2cnn(Cc3n[nH]cc3Cl)c(=O)c21
Wild type PKR [1]
  AC50: < 300 nM
PKR K410E
  AC50: < 300 nM
PKR R510Q
  AC50: < 300 nM
Wild type PKR [2]
  AC50: ≤ 1000 nM

## Cn1c2nc(Cc3n[nH]cc3F)sc2c2cnn(Cc3nc(N)ccc3F)c(=O)c21
Wild type PKR [1]
  AC50: < 300 nM
PKR K410E
  AC50: < 300 nM
PKR R510Q
  AC50: < 300 nM
Wild type PKR [2]
  AC50: ≤ 1000 nM

## Cn1c2nc(Cc3cc[nH]n3)sc2c2cnn(Cc3cc[nH]c(=O)c3)c(=O)c21
Wild type PKR [1]
  AC50: < 300 nM
PKR K410E
  AC50: < 300 nM
PKR R510Q
  AC50: 301 to 800 nM
Wild type PKR [2]
  AC50: ≤ 1000 nM

## Cn1c2nc(Cc3ccccn3)sc2c2cnn(Cc3cccnc3)c(=O)c21
Wild type PKR [1]
  AC50: 301 to 800 nM
PKR K410E
  AC50: 301 to 800 nM
PKR R510Q
  AC50: < 300 nM
Wild type PKR [2]
  AC50: ≤ 1000 nM

## Cn1c2nc([C@H](O)c3cc[nH]n3)sc2c2cnn(Cc3cc[nH]n3)c(=O)c21
Wild type PKR [1]
  AC50: < 300 nM
PKR K410E
  AC50: < 300 nM
PKR R510Q
  AC50: < 300 nM
Wild type PKR [2]
  AC50: ≤ 1000 nM

## Cn1c2nc(Cc3ccn[nH]3)sc2c2cnn(Cc3cn[nH]c3)c(=O)c21
Wild type PKR [1]
  AC50: < 300 nM
PKR K410E
  AC50: < 300 nM
PKR R510Q
  AC50: < 300 nM
Wild type PKR [2]
  AC50: ≤ 1000 nM

## Cn1c2nc(Cn3ccc(N)n3)sc2c2cnn(Cc3cc[nH]n3)c(=O)c21
Wild type PKR [1]
  AC50: < 300 nM
PKR K410E
  AC50: < 300 nM
PKR R510Q
  AC50: < 300 nM
Wild type PKR [2]
  AC50: ≤ 1000 nM

## Cn1c2nc(Cc3cccc(N)n3)sc2c2cnn(Cc3cscn3)c(=O)c21
Wild type PKR [1]
  AC50: < 300 nM
PKR K410E
  AC50: < 300 nM
PKR R510Q
  AC50: < 300 nM
Wild type PKR [2]
  AC50: ≤ 1000 nM

## CC(c1cc[nH]n1)c1nc2c(s1)c1cnn(Cc3cc[nH]n3)c(=O)c1n2C (stereo not drawn)
Wild type PKR [1]
  AC50: < 300 nM
PKR K410E
  AC50: < 300 nM
PKR R510Q
  AC50: < 300 nM
Wild type PKR [2]
  AC50: ≤ 1000 nM

## Cn1c2nc(Cc3ccccn3)sc2c2cnn(Cc3c[nH]nn3)c(=O)c21
Wild type PKR [1]
  AC50: < 300 nM
PKR K410E
  AC50: < 300 nM
PKR R510Q
  AC50: < 300 nM
Wild type PKR [2]
  AC50: ≤ 1000 nM

## COc1c[nH]nc1Cn1ncc2c3sc(Cc4n[nH]cc4F)nc3n(C)c2c1=O
Wild type PKR [1]
  AC50: < 300 nM
PKR K410E
  AC50: < 300 nM
PKR R510Q
  AC50: < 300 nM
Wild type PKR [2]
  AC50: ≤ 1000 nM

## Cn1c2nc(Cn3cnnc3)sc2c2cnn(Cc3cc[nH]n3)c(=O)c21
Wild type PKR [1]
  AC50: > 800 nM
PKR K410E
  AC50: > 800 nM
PKR R510Q
  AC50: > 800 nM
Wild type PKR [2]
  AC50: > 1000 nM

## Cn1c2nc(Cc3cc[nH]n3)sc2c2cnn(Cc3ncsc3C(N)=O)c(=O)c21
Wild type PKR [1]
  AC50: < 300 nM
PKR K410E
  AC50: < 300 nM
PKR R510Q
  AC50: < 300 nM
Wild type PKR [2]
  AC50: ≤ 1000 nM

## COc1cccc(Cn2ncc3c4sc(Cc5cc[nH]n5)nc4n(C)c3c2=O)n1
Wild type PKR [1]
  AC50: < 300 nM
PKR K410E
  AC50: < 300 nM
PKR R510Q
  AC50: < 300 nM
Wild type PKR [2]
  AC50: ≤ 1000 nM

## Cn1c2nc(Cc3cccc(N)n3)sc2c2cnn(Cc3cc[nH]n3)c(=O)c21
Wild type PKR [1]
  AC50: < 300 nM
PKR K410E
  AC50: < 300 nM
PKR R510Q
  AC50: < 300 nM
Wild type PKR [2]
  AC50: ≤ 1000 nM

## Cn1c2nc(Cc3cc[nH]n3)sc2c2cnn(Cc3ncc(N)s3)c(=O)c21
Wild type PKR [1]
  AC50: < 300 nM
PKR K410E
  AC50: < 300 nM
PKR R510Q
  AC50: < 300 nM
Wild type PKR [2]
  AC50: ≤ 1000 nM

## Cn1c2nc(Cc3cc[nH]n3)sc2c2cnn(Cc3coc(C(N)=O)n3)c(=O)c21
Wild type PKR [1]
  AC50: > 800 nM
PKR K410E
  AC50: > 800 nM
PKR R510Q
  AC50: > 800 nM
Wild type PKR [2]
  AC50: ≤ 1000 nM
